ChEMBL document CHEMBL4765403, “Augmentation of the antitumor effects of PARP inhibitors in triple-negative breast cancer via degradation by hydrophobic tagging modulation” (Eur J Med Chem, 2020)
Activity calls are given as the source filed them. The rule behind the calls is not given here.

Tests used:
[1] = target: Poly [ADP-ribose] polymerase 1 (Homo sapiens) (UniProt P09874); assay: Induction of PARP1 degradation in triple-negative human MDA-MB-231 cells assessed as fold change in PARP1 protein expression at 2.5 uM incubated for 48 hrs by Western blot analysis relative to control; assay type: cell-based
[2] = target: Poly [ADP-ribose] polymerase 1 (Homo sapiens) (UniProt P09874); assay: Induction of PARP1 degradation in triple-negative human MDA-MB-231 cells assessed as fold change in PARP1 protein expression at 10 uM incubated for 48 hrs by Western blot analysis relative to control; assay type: cell-based
[3] = target: Poly [ADP-ribose] polymerase 1 (Homo sapiens) (UniProt P09874); assay: Induction of PARP1 degradation in triple negative human MDA-MB-231 cells assessed as fold change in PARP1 protein expression at 5 uM incubated for 48 hrs by Western blot analysis relative to control; assay type: cell-based
MDA-MB-231 [4] = assay: Cytotoxicity against triple-negative human MDA-MB-231 cells assessed as reduction in cell viability measured after 48 hrs by CCK8 assay; assay type: functional, cell-based; settings: MDA-MB-231, 48 h
MDA-MB-231 [5] = assay: Induction of endoplasmic reticulum stress in human MDA-MB-231 cells assessed as upregulation of CHOP protein expression at 5 uM incubated for 48 to 72 hrs by western blot analysis; assay type: functional, cell-based; settings: time 48-72 hrs
MDA-MB-231 [6] = assay: Induction of endoplasmic reticulum stress in human MDA-MB-231 cells assessed as upregulation of XBP-1s protein expression at 5 uM incubated for 48 to 72 hrs by western blot analysis; assay type: functional, cell-based; settings: time 48-72 hrs
MDA-MB-231 [7] = assay: Induction of autophagy in human MDA-MB-231 cells assessed as upregulation of LC3B protein expression at 5 uM incubated for 48 to 72 hrs by western blot analysis; assay type: functional, cell-based; settings: time 48-72 hrs
MDA-MB-231 [8] = assay: Cytotoxicity against human MDA-MB-231 cells assessed as reduction in cell viability measured after 96 hrs by CCK8 assay; assay type: functional, cell-based; settings: MDA-MB-231, 96 h

Chain of Poly [ADP-ribose] polymerase 1 (Homo sapiens) (P09874 whole entry): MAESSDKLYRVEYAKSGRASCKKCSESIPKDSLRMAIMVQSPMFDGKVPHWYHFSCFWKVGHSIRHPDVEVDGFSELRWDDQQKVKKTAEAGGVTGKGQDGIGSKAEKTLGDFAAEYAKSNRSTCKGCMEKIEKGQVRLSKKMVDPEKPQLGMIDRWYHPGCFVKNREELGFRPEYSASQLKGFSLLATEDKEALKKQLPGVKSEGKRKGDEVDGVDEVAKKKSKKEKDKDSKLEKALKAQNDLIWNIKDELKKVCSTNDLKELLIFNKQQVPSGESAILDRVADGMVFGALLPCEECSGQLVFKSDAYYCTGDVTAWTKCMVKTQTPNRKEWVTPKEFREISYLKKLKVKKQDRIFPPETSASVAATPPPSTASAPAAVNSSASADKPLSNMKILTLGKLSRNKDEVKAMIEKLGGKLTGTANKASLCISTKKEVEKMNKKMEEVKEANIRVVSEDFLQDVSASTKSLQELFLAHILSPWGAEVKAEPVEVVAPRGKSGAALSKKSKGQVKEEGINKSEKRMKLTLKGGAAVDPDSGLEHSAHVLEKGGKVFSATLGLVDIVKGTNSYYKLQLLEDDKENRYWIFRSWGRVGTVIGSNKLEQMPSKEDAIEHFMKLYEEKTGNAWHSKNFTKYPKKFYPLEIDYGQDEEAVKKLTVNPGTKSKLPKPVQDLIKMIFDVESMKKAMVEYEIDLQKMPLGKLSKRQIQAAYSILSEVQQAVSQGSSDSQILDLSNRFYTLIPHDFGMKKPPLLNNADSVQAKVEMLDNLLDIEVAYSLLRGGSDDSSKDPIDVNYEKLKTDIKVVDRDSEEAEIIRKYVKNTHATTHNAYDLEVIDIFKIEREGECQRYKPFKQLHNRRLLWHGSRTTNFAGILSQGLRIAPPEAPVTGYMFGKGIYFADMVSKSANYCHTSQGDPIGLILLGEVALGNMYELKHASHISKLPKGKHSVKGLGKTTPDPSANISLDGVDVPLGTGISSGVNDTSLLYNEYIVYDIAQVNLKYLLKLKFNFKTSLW

SMILES | fold change (FC) [1] | fold change (FC) [2] | fold change (FC) [3] | IC50 (MDA-MB-231 [4]) | Activity (MDA-MB-231 [5]) | Activity (MDA-MB-231 [6]) | Activity (MDA-MB-231 [7]) | IC50 (MDA-MB-231 [8])
CC(C)Cc1ccc([C@H](C)C(=O)N2CCN(C(=O)c3cc(Cc4n[nH]c(=O)c5ccccc45)ccc3F)CC2)cc1 | 0.8 | 0.8 | 1 | – | – | – | – | –
CC(C)Cc1ccc([C@H](C)C(=O)NCCCCN2CCN(C(=O)c3cc(Cc4n[nH]c(=O)c5ccccc45)ccc3F)CC2)cc1 | 0.9 | 1.7 | 1.2 | – | – | – | – | –
O=C(CC12CC3CC(CC(C3)C1)C2)NCCCCCCN1CCN(C(=O)c2cc(Cc3n[nH]c(=O)c4ccccc34)ccc2F)CC1 | 0.9 | 0.8 | 1.2 | – | – | – | – | –
CC(C)Cc1ccc([C@H](C)C(=O)NCCN2CCN(C(=O)c3cc(Cc4n[nH]c(=O)c5ccccc45)ccc3F)CC2)cc1 | 0.9 | 0.7 | 0.8 | – | – | – | – | –
c1ccc2c(c1)Cc1ccccc1-2 [FLUORENE] | – | – | – | > 50 µM | – | – | – | –
O=C(CC12CC3CC(CC(C3)C1)C2)NCCCCN1CCN(C(=O)c2cc(Cc3n[nH]c(=O)c4ccccc34)ccc2F)CC1 | 1.1 | 1.1 | 1.2 | – | – | – | – | –
O=C(CC12CC3CC(CC(C3)C1)C2)N1CCN(C(=O)c2cc(Cc3n[nH]c(=O)c4ccccc34)ccc2F)CC1 | 0.9 | 0.8 | 0.7 | – | – | – | – | –
O=C(c1cc(Cc2n[nH]c(=O)c3ccccc23)ccc1F)N1CCN(C(=O)C2CC2)CC1 [OLAPARIB] | – | – | – | – | inactive | inactive | inactive | 32.4 µM
O=C(CC12CC3CC(CC(C3)C1)C2)NCCN1CCN(C(=O)c2cc(Cc3n[nH]c(=O)c4ccccc34)ccc2F)CC1 | 1.1 | 1.3 | 1.2 | – | – | – | – | –
O=C(CC1c2ccccc2-c2ccccc21)NCCN1CCN(C(=O)c2cc(Cc3n[nH]c(=O)c4ccccc34)ccc2F)CC1 | 0.4 | 0.4 | 0.3 | 26.2 µM | – | – | – | –
O=C(NCCCCN1CCN(C(=O)c2cc(Cc3n[nH]c(=O)c4ccccc34)ccc2F)CC1)C(C1CCCCC1)C1CCCCC1 | 1.1 | 1.2 | 0.8 | – | – | – | – | –
O=C(NCCCCN1CCN(C(=O)c2cc(Cc3n[nH]c(=O)c4ccccc34)ccc2F)CC1)C(c1ccccc1)c1ccccc1 | 1.4 | 1.2 | 1.6 | – | – | – | – | –
O=C(CC1c2ccccc2-c2ccccc21)NCCCCCCN1CCN(C(=O)c2cc(Cc3n[nH]c(=O)c4ccccc34)ccc2F)CC1 | 0.5 | 0.4 | 0.5 | – | – | – | – | –
CC(C)Cc1ccc([C@H](C)C(=O)NCCCCCCN2CCN(C(=O)c3cc(Cc4n[nH]c(=O)c5ccccc45)ccc3F)CC2)cc1 | 1.2 | 0.3 | 0.7 | 15.9 µM | – | – | – | –
O=C(NCCN1CCN(C(=O)c2cc(Cc3n[nH]c(=O)c4ccccc34)ccc2F)CC1)C(C1CCCCC1)C1CCCCC1 | 0.9 | 0.9 | 0.9 | – | – | – | – | –
O=C(NCCCCCCN1CCN(C(=O)c2cc(Cc3n[nH]c(=O)c4ccccc34)ccc2F)CC1)C(C1CCCCC1)C1CCCCC1 | 0.9 | 0.3 | 0.8 | > 50 µM | – | – | – | –
O=C(NCCCCCCN1CCN(C(=O)c2cc(Cc3n[nH]c(=O)c4ccccc34)ccc2F)CC1)C(c1ccccc1)c1ccccc1 | 1.4 | 1.3 | 1.5 | – | – | – | – | –
O=C(NCCN1CCN(C(=O)c2cc(Cc3n[nH]c(=O)c4ccccc34)ccc2F)CC1)C(c1ccccc1)c1ccccc1 | 1.3 | 1.3 | 1.1 | – | – | – | – | –
O=C(c1cc(Cc2n[nH]c(=O)c3ccccc23)ccc1F)N1CCN(C(=O)C(C2CCCCC2)C2CCCCC2)CC1 | 0.6 | 0.7 | 0.7 | – | – | – | – | –
O=C(c1cc(Cc2n[nH]c(=O)c3ccccc23)ccc1F)N1CCN(C(=O)C(c2ccccc2)c2ccccc2)CC1 | 1 | 1.1 | 1 | – | – | – | – | –
O=C(CC1c2ccccc2-c2ccccc21)NCCCCN1CCN(C(=O)c2cc(Cc3n[nH]c(=O)c4ccccc34)ccc2F)CC1 | 0.5 | 0.5 | 0.5 | > 50 µM | – | – | – | –
